The target in one data set is IRE1 (Homo sapiens, UniProt O75460). Description: IRE1 phosphorylation by Phos-tag SDS-PAGE and immunoblotting in HEK293T cells. It is filed as cell-based. Conditions: test compound alone, 10 μM, 4 hours. How it is done: FIG. 3A-FIG. 3D. […] Error bars show SEM for n=3. […] Error bars show SEM for n=3. […] Error bars show SEM for n=3.
Cell lysates were prepared as previously described in RIPA buffer (50 mM Tris, pH 7.5, 150 mM NaCl, 0.1% SDS, 1% Triton X-100, 0.5% deoxycholate and protease inhibitor cocktail (Roche). Total protein concentration in cellular lysates was normalized using the Bio-Rad protein assay. Lysates were then denatured with 1× Laemmli buffer+100 mM DTT and boiled before being separated by SDS-PAGE. Samples were transferred onto nitrocellulose membranes (Bio-Rad) for immunoblotting and blocked with 5% milk in Tris-buffered saline, 0.5% Tween-20 (TBST) following incubation overnight at 4° C. with primary antibodies. Membranes were washed in TBST, incubated with IR-Dye conjugated secondary antibodies and analyzed using Odyssey Infrared Imaging System (LI-COR Biosciences). Quantification was carried out with LI-COR Image Studio software.
Compounds that activate IRE1 through binding the IRE1 kinase active site and inhibiting IRE1 autophosphorylation can elicit off-target activity likely associated with binding to other protein kinases.^20, 35, 36 Thus, the purpose of this example was to define the dependence of the present compounds on IRE1 kinase activity. HEK293T cells were treated with compound 198, 474, or 970 in the absence or presence of Tg, and IRE1 phosphorylation was monitored by using Phos-tag SDS-PAGE and immunoblotting. As a control, cells were treated with APY29—an IRE1 kinase site inhibitor that allosterically activates the IRE1 RNAse^20 in the absence or presence of Tg.
In general terms: Immunoblotting shows a protein as a band on a membrane.

A further data set relates to PERK geneset. Description: RNAseq geneset analysis in HEK293T cells, PERK geneset. Type of data set: cell-based, human. Conditions: 6 h. How it is done: (§1) Cells were lysed and total RNA collected using the RNeasy mini kit, according to manufacturer's instructions (Qiagen). Conventional RNA-seq was conducted via BGI Americas on the BGI Proprietary platform, providing single-end 50 bp reads at 20 million reads per sample. Alignment of sequencing data was done using DNAstar Lasergene SeqManPro to the GRCh37. p 13 human genome reference assembly, and assembly data were imported into ArrayStar 12.2 with QSeq (DNAStar Inc.) to quantify the gene expression levels and normalization to reads per kilobase per million (RPKM). Differential expression analysis and statistical significance calculations between different conditions was assessed using “DESeq” in R, compared to vehicle-treated cells, using a standard negative binomial fit of the RPKM data to generate Fold Change quantifications.
The purpose of this example was to define the ability of the compounds to selectively induce expression of IRE1/XBP1s target genes: for this purpose, RNAseq was performed on HEK293T cells that had been treated with compound No. 198, 474, or 970 for 6 h. As a control, RNAseq was performed on cells that had been treated with the global UPR activator Tg. […] These include the ER stress-responsive transcription factor XBP1 and the ER proteostasis factors SEC24D, […], and HERPUD1^8.
The next step defined the selectivity of the compounds for IRE1/XBP1s signaling relative to other arms of the UPR. […] To overcome this challenge, the expression of individual genes that are included in these genesets were normalized to the expression observed in Tg-treated cells (Tg representing 100% activation of these genes). It was therefore possible to directly compare gene expression without complications arising from differential expression^42.

The next data set deals with secreted Aβ. Description: Aβ ELISA of media conditioned on CHO 7PA2 cells (V717F APP). Type of data set: cell-based. Conditions: CHO 7PA2, 10 μM. On the procedure:
FIGS. 5A-5D. […] Cells were treated for 18 hours, media was then replaced and conditioned in the presence of treatments for 24 hours before harvesting for ELISA assay. Error bars represent SEM for n=3 replicates. Statistics calculated from one-tailed Student's t-test. *p<0.05, **p<0.01, ***p<0.001 (FIG. 5A). Quantification of media and lysate immunoblots from 474 treatment (10 μM) of APP. Error bars represent Standard Deviation for n=3 replicates. Statistics calculated from one-tailed Student's t-test. *p<0.05, **p<0.01 ***p<0.001 (FIG. 5B). Plot showing fraction of total remaining APP at each time point after S35 metabolic labeling of newly synthesized protein, accounting for the sum of APP in lysate and media. Error bars represent Standard Deviation for n=3 replicates. Statistics calculated from one-tailed Student's t-test. *p<0.05, **p<0.01, ***p<0.001 (FIG. 5C). Plot showing fraction of secreted APP collected at 2 hours after metabolic labeling. Error bars represent Standard Deviation for n=3 replicates. Statistics calculated from one-tailed Student's t-test. *p<0.05, **p<0.01, ***p<0.001 (FIG. 5D).
(§2) 7PA2 or 7WD10 cells were cultured on 96-well plates (Corning) and treated with IRE1 activating compounds +/−4 μ8c overnight. The medium was then replaced at 50% volume with treatment remaing, culture medium was collected after 24 hours. The medium was analyzed by an AP ELISA as follows. Monoclonal 6E10 anti-Aβ(residues 1-17) mouse IgG1, (Biolegend) was coated in […] carbonate buffer, pH 9.6, at 4° C. overnight on high binding assay black plates (Costar), washed with TBST (tris buffered saline with 0.05% Tween 20) and blocked with 5% non-fat milk in TBST. Samples and standards (condition 7PA2 media) were incubated for 1.5 hr, followed by addition of 4G8 antibody [anti-Aβ residues 17-24, mouse IgG2b (Biolegend)] conjugated to horseradish peroxidase (hrp) and incubated for 1.5 hr at 25° C. After washing, ABM substrate was added, followed by detection with an absorbance plate reader.
(§3) ELISA was used to monitor Aβ in media conditioned on a CHO cell line stably expressing the destabilized, disease-associated V717F APP mutant (CHO^7PA2)^45 treated with or without compounds 198, 474, and 970. […] The reduction in A secretion can be attributed to IRE1 activation because the reduced extracellular accumulation of Aβ is blocked by co-treatment with the active site IRE1 inhibitor 4 μ8c (FIG. 5A).
Background: In an ELISA, binding on a coated surface is turned into a signal by an enzyme label.

Another data set concerns extracellular Aβ. Description: Aβ in media conditioned on CHO 7WD10 cells (wild-type APP). Conditions: CHO 7WD10, APP WT. It is filed as cell-based. On the procedure:
as §2, §3

In another data set the test system is CHO 7WD10 cells. Description: CHO 7WD10 viability. Type of data set: cell-based.
Another data set relates to ER proteostasis factors. In words: RNAseq expression of 124 proteostasis factors. Type of data set: cell-based, human. On the procedure:
as §1
One of the mechanisms by which IRE1/XBP1s activation is protective is through the targeted transcriptional remodeling of ER proteostasis pathways. Because it was observed that compounds such as 474 and 970 selectively activate IRE1/XBP1s signaling, it was desired to confirm that these compounds similarly promote targeted ER proteostasis network remodeling. […]

The structures appear in SMILES notation.

IRE1, sequence (O75460 19-977): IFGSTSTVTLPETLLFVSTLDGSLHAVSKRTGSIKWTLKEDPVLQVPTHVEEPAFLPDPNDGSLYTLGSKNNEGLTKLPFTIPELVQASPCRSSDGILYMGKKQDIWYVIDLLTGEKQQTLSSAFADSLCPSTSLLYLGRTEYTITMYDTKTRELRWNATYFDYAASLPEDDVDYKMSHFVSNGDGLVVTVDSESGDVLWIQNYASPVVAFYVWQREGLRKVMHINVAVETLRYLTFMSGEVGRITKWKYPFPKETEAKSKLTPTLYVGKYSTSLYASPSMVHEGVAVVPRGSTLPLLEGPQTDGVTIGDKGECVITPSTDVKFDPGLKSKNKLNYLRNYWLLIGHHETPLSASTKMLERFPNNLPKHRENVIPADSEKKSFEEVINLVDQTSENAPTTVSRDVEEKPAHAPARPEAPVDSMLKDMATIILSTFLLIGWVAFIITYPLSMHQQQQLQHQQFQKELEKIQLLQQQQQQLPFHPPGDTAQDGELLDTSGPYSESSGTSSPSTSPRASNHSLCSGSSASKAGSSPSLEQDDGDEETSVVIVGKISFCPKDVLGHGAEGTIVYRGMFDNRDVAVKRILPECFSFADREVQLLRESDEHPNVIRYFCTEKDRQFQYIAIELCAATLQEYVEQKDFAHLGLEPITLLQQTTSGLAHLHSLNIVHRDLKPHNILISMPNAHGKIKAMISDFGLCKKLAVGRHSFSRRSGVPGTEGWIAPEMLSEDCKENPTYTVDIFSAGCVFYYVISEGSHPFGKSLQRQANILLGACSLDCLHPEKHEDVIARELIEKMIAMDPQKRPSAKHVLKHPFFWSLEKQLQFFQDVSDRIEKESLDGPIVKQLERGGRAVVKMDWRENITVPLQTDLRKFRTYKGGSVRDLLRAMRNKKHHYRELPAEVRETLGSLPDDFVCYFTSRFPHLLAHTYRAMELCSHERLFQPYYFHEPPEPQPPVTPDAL

Turning to `CCOC(CNC(=O)C1CCCN(Cc2nc(-c3ccc(Cl)cc3)oc2C)C1)OCC` (centres unmarked) [Compound 198], on IRE1, the “phosphorylated IRE1” value was “increased phosphorylated IRE1”. The “expression of the PERK geneset” value in the data set with PERK geneset was “increased expression of the PERK geneset”. Moreover, the “Aβ in conditioned media relative to control conditioned media” value in the data set with secreted Aβ is given as 50%. Besides, the “extracellular Aβ in conditioned media” value with extracellular Aβ is listed as “reduced extracellular Aβ”. The cellular viability result with CHO 7WD10 cells was “without impacting cellular viability”.
Consider `Cc1ccc(OCCN(C)C(=O)Cn2cc(NC(=O)CCOc3ccccc3)cn2)cc1` [Compound 474], for which, at IRE1, the “phosphorylated IRE1” value was “increased phosphorylated IRE1”. For the same molecule, in the data set with PERK geneset, the “expression of the PERK geneset” value is given as “did not demonstrate this effect”. Besides, the “remodeling of ER proteostasis factors relative to other compartments” value with ER proteostasis factors is “selective remodeling”. The “Aβ in conditioned media relative to control conditioned media” value with secreted Aβ was determined as 50%. For the same molecule, in the data set on extracellular Aβ, the “extracellular Aβ in conditioned media” value was “reduced extracellular Aβ”. The cellular viability result in the data set with CHO 7WD10 cells is listed as “without impacting cellular viability”.
For the molecule `O=C(CN(Cc1ccc(Cl)cc1)S(=O)(=O)c1cccnc1)N1CCc2ccccc21` [Compound 970], the “phosphorylated IRE1” value on IRE1 was “increased phosphorylated IRE1”. Further, the “expression of the PERK geneset” value in the data set with PERK geneset is on record as “did not demonstrate this effect”. Further, in the data set with ER proteostasis factors, the “remodeling of ER proteostasis factors relative to other compartments” value was “selective remodeling”. Besides, the “Aβ in conditioned media relative to control conditioned media” value in the data set on secreted Aβ worked out at 50%. The “extracellular Aβ in conditioned media” value in the data set on extracellular Aβ was “reduced extracellular Aβ”. In addition, the cellular viability entry in the data set with CHO 7WD10 cells is given as “without impacting cellular viability”.

The values above are taken from patent publication US11426402B2, “IRE1 activating compounds for use in therapy” (The Scripps Research Institute, priority 2019, dated 2022).
